From paper PMC11285977, “Identification of drug-like molecules targeting the ATPase activity of dynamin-like EHD4” (PLOS ONE, 2024)
Like-named read-outs stand apart in the source and are kept apart here.

Key:
EHD4^ΔN [1] = target: T1, EHD4^ΔN (Mus musculus, UniProt Q9EQP2); experiment: Malachite green (MLG)-based liposome-stimulated ATPase assay of EHD4ΔN; type: biochemical; settings: read-out: IC50, EHD4ΔN ATPase inhibition
T1 construct: mouse EHD4 (Uniprot Q1MWP8, residues 22–541, EHD4^ΔN); His6 followed by PreScission cleavage site (N, cleaved yes); made in house; host or cells: E. coli BL21 DE3 Rosetta
T1 sequence (Q9EQP2 22-541): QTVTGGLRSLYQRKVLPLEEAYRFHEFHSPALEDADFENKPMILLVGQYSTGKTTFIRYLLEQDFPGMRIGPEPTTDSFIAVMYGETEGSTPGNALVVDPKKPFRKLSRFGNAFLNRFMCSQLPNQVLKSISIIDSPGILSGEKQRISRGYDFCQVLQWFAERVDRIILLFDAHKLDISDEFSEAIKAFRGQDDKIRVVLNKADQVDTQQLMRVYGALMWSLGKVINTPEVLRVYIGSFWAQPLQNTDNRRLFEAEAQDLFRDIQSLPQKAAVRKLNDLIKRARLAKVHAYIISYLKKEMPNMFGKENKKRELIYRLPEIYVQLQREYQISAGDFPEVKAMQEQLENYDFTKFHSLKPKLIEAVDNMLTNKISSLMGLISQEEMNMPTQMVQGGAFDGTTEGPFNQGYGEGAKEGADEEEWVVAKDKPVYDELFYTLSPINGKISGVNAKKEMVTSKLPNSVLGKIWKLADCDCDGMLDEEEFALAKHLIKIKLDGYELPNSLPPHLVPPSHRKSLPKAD
Experimental: ATPase assays were performed in a 384 well plate at 25°C (if not otherwise indicated). The assay buffer contained 20 mM HEPES, 150 mM KCl, 0.5 mM MgCl2, pH 7.5. 30 μM of ATP was mixed with 50 μg/ml DOPS in assay buffer. Reaction was started by adding 200 nM EHD4^ΔN. At any given time-point, 25 μl of the reaction was taken out and mixed with 75 μl of the dye in a 384 well plate. The reaction gets quenched by the addition of the dye which denatures the protein. Absorbance at 650 nm was measured in a plate reader (Tecan, Infinite M200).
Screening was conducted at the Screening Unit of the Leibniz-Forschungsinstitut für Molekulare Pharmakologie (FMP) using a kinase drug library and the ‘diversity set’. 15,840 compounds were tested as singlets in 384 well plate format. A master mix (MM) was prepared in the assay buffer to have a final ATP concentration of 30 μM and DOPS concentration of 50 μg/ml. A 10 mM DMSO solution of the compounds was serially diluted, first with DMSO and then with the MM to a final concentration of 10 μM (1% of DMSO), using the Tecan-Evo workstation (pipetting robot). EHD4^ΔN (200 nM) was pipetted using multi-drop dispensing cassette. To have homogenous enzymatic activity, the plates were vortexed using a microplate mixer at 2,000 rpm for 10 s. The plates were incubated for 15 min at room temperature and 75 μl of MLG dye added with the cassette. The plates were measured in a Perkin Elmer Envision plate reader.
Data were analyzed with an automated pipeline using KNIME software. For the individual plates, the corresponding Z´ values and SNR were calculated. Compared to the control´s absorbance at 650 nm (Abs650), compounds were classified as inhibitors if the %Abs650 was ≤ 25%. These hits were picked from the drug library and used for further validation of IC50 determination and counter screening. IC50 values were determined in the same setup with varying inhibitor concentrations from 0.125 μM to 50 μM.

DNM1L = target: T2, DNM1L (Homo sapiens, UniProt O00429); experiment: MLG-based stimulated GTPase assay of DNM1L (counter-screen); type: biochemical; settings: 300 nM DNM1L, 40 μM GTP, 25°C; inhibitor 0.125 μM to 50 μM (IC50 curve) or 10 μM (time course)
T2 construct: human DNM1L isoform 2 (UniProtID: O00429-3, residues 1–710); made in house
Experimental: Fig 5 Biochemical characterization of the primary hits. A One-hour time course of the MLG-based enzymatic ATPase assay in the presence of 50 μM inhibitor. EHD4^ΔN (blue curve) represents the positive control. B Primary hits were validated at 50 μM inhibitor concentration in an HPLC setup to exclude assay bias. ATPase assays done in A and B were in standard conditions. C Primary hits were tested against EHD2. Only MS8 had no effect on EHD2 ATPase activity. ATPase assay was done at an EHD2 concentration of 5 μM in the presence of 500 μg/ml Folch liposomes and 50 μM ATP in assay buffer at 30°C. D Changes in melting temperature of 5 μM EHD4^ΔN were studied in the presence of 50 μM inhibitor by thermal shift assay. MS1 and MS10 destabilized the protein, as evident by negative ΔTm, whereas MS8 had no effect on the stability of EHD4^ΔN. […] Shown is an IC50 curve plotted with an inhibitor concentration range from 0.125 μM to 50 μM. F MS8 substructure obtained by dissecting the diphenlyether bond. This substructure was used in our chemical search to have the highest diversity of the chemical space and the optimal coverage of chemical vectors to gain a structure-activity relationship.Data points represents the mean of two or more independent experiments and the error bar signifies the range or standard deviation. […] TEXT PRINTED IN THE PICTURE: (D) EHD4^ΔN: Tm = 44.5 °C DOUBTS OF THE COPYIST ABOUT THIS PICTURE: Panel D: 'EHD4^ΔN Tm = 44.5 °C' is the only printed result. It refers to the protein itself (reference melting temperature), not to one of the inhibitors MS1, MS8 or MS10, so it may not count as a result for a substance.
Supplementary file pone.0302704.s004.tif: S4 Fig DNM1L and EHD2 enzymatic assay. A EHD2 ATPase activity by an HPLC-based method. Assay conditions were 5 μM EHD2, 50 μM ATP and 1 mg/ml Folch liposomes at 30°C. […] C Km was determined by first calculating the amount of hydrolyzed GTP in (B) using the standard curve reported in S2C Fig and then plotting the initial rates of the reactions versus the substrate concentration. […]

EHD4^ΔN [2] = target: T1, EHD4^ΔN; experiment: Thermal shift assay (TSA); type: binding; settings: 5 μM EHD4ΔN, 50 μM inhibitor
Experimental: TSA was done in a CFX96 touch-real time PCR using a fluorescent dye from ThermoFisher Scientific (catalogue number 4461146). Reactions (5 μM EHD4^ΔN, 50 μM inhibitor and 1X dye) were prepared on ice, to a final volume of 50 μl and transferred to a 96 well PCR plate and then sealed with a plastic film. CFX96 was precooled to 4°C and the PCR plate was inserted. The fluorescence was measured from 4°C to 80°C with 0.5°C temperature steps. Protein melting temperature was calculated with the provided software (Bio-Rad) and plotted as bar diagram using GraphPad Prism 7.05.

EHD2 = target: T3, EHD2 (Mus musculus, UniProt Q8BH64); experiment: HPLC-based EHD2 ATPase assay; type: biochemical; settings: 5 μM EHD2, 500 μg/ml Folch liposomes, 50 μM ATP, 30°C
T3 construct: Mouse EHD2 (Uniprot Q8BH64, residues 1–543); made in house
T3 sequence (Q8BH64 1-543): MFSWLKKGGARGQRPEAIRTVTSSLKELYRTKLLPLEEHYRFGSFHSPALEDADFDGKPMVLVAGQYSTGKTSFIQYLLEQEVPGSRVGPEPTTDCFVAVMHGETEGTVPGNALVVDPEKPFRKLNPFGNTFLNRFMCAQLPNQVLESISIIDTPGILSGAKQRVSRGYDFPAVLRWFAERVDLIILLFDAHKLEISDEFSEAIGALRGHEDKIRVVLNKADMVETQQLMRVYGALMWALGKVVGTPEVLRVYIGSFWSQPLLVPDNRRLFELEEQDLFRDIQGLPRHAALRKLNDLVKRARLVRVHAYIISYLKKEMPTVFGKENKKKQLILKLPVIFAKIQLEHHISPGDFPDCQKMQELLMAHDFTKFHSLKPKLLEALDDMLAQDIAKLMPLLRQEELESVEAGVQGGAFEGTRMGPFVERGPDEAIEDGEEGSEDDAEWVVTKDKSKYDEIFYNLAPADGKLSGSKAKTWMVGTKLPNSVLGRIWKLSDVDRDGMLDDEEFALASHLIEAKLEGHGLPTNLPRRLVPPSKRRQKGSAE
Experimental: ATPase assay was performed as mentioned above and at defined time points, reaction aliquots were diluted three times in reaction buffer (50 mM Tris, 150 mM NaCl, pH 7.5) and quickly flash frozen in liquid nitrogen. Samples were applied to an HPLC and nucleotides were separated with reversed phase column (C18 100*4.6 mm) equilibrated with running buffer containing 100 mM potassium phosphate buffer pH 6.5, 10 mM tetrabutylammonium bromide, 7.5% (v/v) acetonitrile. Adenine nucleotides were detected by absorption at 254 nm and quantified by integrating the corresponding nucleotide peaks and determining the ADP/ATP ratios.
Fig 5 Biochemical characterization of the primary hits. A One-hour time course of the MLG-based enzymatic ATPase assay in the presence of 50 μM inhibitor. EHD4^ΔN (blue curve) represents the positive control. B Primary hits were validated at 50 μM inhibitor concentration in an HPLC setup to exclude assay bias. ATPase assays done in A and B were in standard conditions. C Primary hits were tested against EHD2. Only MS8 had no effect on EHD2 ATPase activity. ATPase assay was done at an EHD2 concentration of 5 μM in the presence of 500 μg/ml Folch liposomes and 50 μM ATP in assay buffer at 30°C. D Changes in melting temperature of 5 μM EHD4^ΔN were studied in the presence of 50 μM inhibitor by thermal shift assay. MS1 and MS10 destabilized the protein, as evident by negative ΔTm, whereas MS8 had no effect on the stability of EHD4^ΔN. […] Shown is an IC50 curve plotted with an inhibitor concentration range from 0.125 μM to 50 μM. F MS8 substructure obtained by dissecting the diphenlyether bond. […]
Supplementary file pone.0302704.s004.tif: S4 Fig DNM1L and EHD2 enzymatic assay. […] B Initial velocities of DNM1L GTPase activity at 300 nM DNM1L, and, 500 μg/ml synthetic DOPS, T = 25°C and at different GTP concentrations were determined by a linear fit. C Km was determined by first calculating the amount of hydrolyzed GTP in (B) using the standard curve reported in S2C Fig and then plotting the initial rates of the reactions versus the substrate concentration. […]

[3] = compounds picked from the drug library, duplicates, inhibitor 0.125 μM to 50 μM, 200 nM EHD4ΔN, 30 μM ATP, 50 μg/ml DOPS

T2 sequence (O00429 1-710 isoform O00429-3): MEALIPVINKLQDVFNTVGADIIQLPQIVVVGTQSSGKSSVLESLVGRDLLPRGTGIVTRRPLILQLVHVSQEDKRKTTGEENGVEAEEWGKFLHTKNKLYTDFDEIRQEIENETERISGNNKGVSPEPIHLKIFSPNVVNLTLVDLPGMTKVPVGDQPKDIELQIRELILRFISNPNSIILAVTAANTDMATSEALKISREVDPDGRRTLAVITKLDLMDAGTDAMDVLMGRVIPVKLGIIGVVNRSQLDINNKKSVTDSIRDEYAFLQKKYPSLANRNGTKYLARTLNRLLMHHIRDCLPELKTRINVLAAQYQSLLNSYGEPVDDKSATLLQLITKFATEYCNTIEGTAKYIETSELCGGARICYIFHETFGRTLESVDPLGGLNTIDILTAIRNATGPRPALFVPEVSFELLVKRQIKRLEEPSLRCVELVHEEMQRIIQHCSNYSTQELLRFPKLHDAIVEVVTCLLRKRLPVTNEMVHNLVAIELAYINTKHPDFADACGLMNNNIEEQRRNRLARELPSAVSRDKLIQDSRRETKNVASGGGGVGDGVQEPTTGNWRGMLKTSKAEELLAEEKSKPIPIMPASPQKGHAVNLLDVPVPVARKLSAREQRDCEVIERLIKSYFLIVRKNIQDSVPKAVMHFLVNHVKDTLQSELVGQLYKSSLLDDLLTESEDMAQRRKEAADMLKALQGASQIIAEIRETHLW

Structure (SMILES) | IC50 (EHD4^ΔN [1]; [3]) [µM] | IC50 (EHD4^ΔN [1]; repurchased compounds) [µM] | effect on stimulated GTPase activity of DNM1L (DNM1L) | effect on EHD4ΔN stability (thermal shift) (EHD4^ΔN [2]) | ΔTm at 50 µM (EHD4^ΔN [2]; Tm of protein alone 44.5°C) [°C] | effect on EHD2 enzymatic (ATPase) activity (EHD2)
O=C(CCCCCn1sc2ccccc2c1=O)Nc1ccccc1O [MS1, N-(2-hydroxyphenyl)-6-(3-oxo-2,3-dihydro-1,2-benzothiazol-2-yl)hexanamide] | 0.92 | 2.4 | did not interfere | destabilizing effect | -5 | inhibited
Cc1csc(NC(=O)c2cccc(Oc3ccccc3)c2)n1 [MS8, N-(4-methyl-1,3-thiazol-2-yl)-3-phenoxybenzamide] | 3.8 | 4.9 | did not inhibit | no such effect |  | no effect
Oc1cc2c(cc1C(c1ccc(C(F)(F)F)cc1)N1CCOCC1)OCO2 (stereo not shown) [MS10, 6-(Morpholino(4-(Trifluormethyl)phenyl)methyl)-1,3-Benzodioxol-5-ol] | 2.9 | 4.8 | did not interfere | diminished EHD4^ΔN stability |  | inhibited
